Patent publication US20120070374A1, “Compounds for Non-Invasive Measurement of Aggregates of Amyloid Peptides” (priority 2009, published 2012)

Molecular target: fibrils of Aβ40 and Aβ42
Experiment: Inhibition of N-[^3H-methyl]6-OH-BTA-1 ([^3H]PIB) binding to β-amyloid fibrils, determination of Ki
Design: species or system Human
Conditions: radioligand used for Ki calculation; [L] 4 nM
Procedure: Human Aβ40 and Aβ42 peptides (Bachem) were incubated at 0.5 mg/ml in a solution of 10 mM Na2HPO4, 1 mM EDTA (pH 7.4) at 37° C. for 48 h. The formation of fibrils was confirmed by microscopy and binding of [^3H]6-OH-BTA-1 ([^3H]PIB). Fibrils were either used immediately or aliquoted and subsequently stored at −80° C. until use. Solutions of the test substances (>95% purity according to analytical HPLC) or 6-OH-BTA-1 (>95% purity according to analytical HPLC; ABX Biochemicals, Radeberg, Germany) and N—[^3H-methyl]6-OH-BTA-1 were prepared as 1-10 mM dimethyl sulfoxide (DMSO) stocks before dilution into assay buffer. The maximum final concentration of DMSO in the assays was 1%. All assays were performed in 10 mM Na2HPO4. The incubation was performed at 25° C. for 180 min. The bound and free fractions were separated by vacuum filtration through GF/B glass filters (Whatman, Maidstone, UK) using a Perkin Elmer harvester (PerkinElmer, 96 Micro B Filtermat) followed by 6×0.2 ml washes with ice cold phosphate buffer. Filters containing the bound ligand were counted with a liquid scintillation counter (Wallac Trilux, 1450 Microbeta). […] The inhibition of [^3H]PIB binding was measured for five different concentrations of the test compound in question, performed in duplicates.

Kd: 4.2 nM
Compound: CNc1ccc(-c2nc3ccc(O)cc3s2)cc1 [[^3H]PIB, N-[^3H-methyl]6-OH-BTA-1]
